Test results from patent US9273009B2, “Tetrahydronaphthalene derivatives” (Concert Pharmaceuticals Inc., priority 2010, dated 2016).
Where a name gives a salt, the structure may show the parent alone. Read-outs that look alike come from different tables or passages of the source.

Assays:
[1] = Metabolic stability in human liver microsomes (in vitro t1/2); type: in vitro ADME; settings: for half-life: human, human liver microsomes
Experimental: Human liver microsomes (20 mg/mL) were obtained from Xenotech, LLC (Lenexa, Kans.). β-nicotinamide adenine dinucleotide phosphate, reduced form (NADPH), magnesium chloride (MgCl2), and dimethyl sulfoxide (DMSO) were purchased from Sigma-Aldrich.
7.5 mM stock solutions of test compounds were prepared in DMSO. The 7.5 mM stock solutions were diluted to 12.5-50 μM in acetonitrile (ACN). The 20 mg/mL human liver microsomes were diluted to 0.625 mg/mL in 0.1 M potassium phosphate buffer, pH 7.4, containing 3 mM MgCl2. The diluted microsomes were added to wells of a 96-well deep-well polypropylene plate in triplicate. A 10 μL aliquot of the 12.5-50 μM test compound was added to the microsomes and the mixture was pre-warmed for 10 minutes. Reactions were initiated by addition of pre-warmed NADPH solution. The final reaction volume was 0.5 mL and contained 0.5 mg/mL human liver microsomes, 0.25-1.0 μM test compound, and 2 mM NADPH in 0.1 M potassium phosphate buffer, pH 7.4, and 3 mM MgCl2. The reaction mixtures were incubated at 37° C., and 50 μL aliquots were removed at 0, 5, 10, 20, and 30 minutes and added to shallow-well 96-well plates which contained 50 μL of ice-cold ACN with internal standard to stop the reactions. The plates were stored at 4° C. for 20 minutes after which 100 μL of water was added to the wells of the plate before centrifugation to pellet precipitated proteins. Supernatants were transferred to another 96-well plate and analyzed for amounts of parent remaining by LC-MS/MS using an Applied Bio-systems API 4000 mass spectrometer. The same procedure was followed for the non-deuterated counterpart of the compound of Formula B, Formula A, Formula I, Formula B-I, Formula C, or Formula E and the positive control, 7-ethoxycoumarin (1.0 μM). Testing was done in triplicate.
The in vitro t1/2s for test compounds were calculated from the slopes of the linear regression of % parent remaining (ln) vs incubation time relationship. in vitro t1/2=0.693/k k=−[slope of linear regression of % parent remaining(ln) vs incubation time]

[2] = intravenous, healthy male volunteers, cited from earlier work
[3] = relative to mibefradil; cited from earlier work
[4] = pH 7.4, Table 8a, 0.5 mg/mL HLM, 2 mM NADPH, 37° C., read-out: t1/2 Experiment 1
[5] = pH 7.4, Table 8a, 0.5 mg/mL HLM, 2 mM NADPH, 37° C., read-out: t1/2 Experiment 2
[6] = pH 7.4, Table 8a, average of Experiments 1 and 2, read-out: t1/2 Ave
[7] = pH 7.4, Table 8b, 0.5 mg/mL HLM, 2 mM NADPH, 37° C., read-out: t1/2 Experiment 1
[8] = pH 7.4, Table 8b, 0.5 mg/mL HLM, 2 mM NADPH, 37° C., read-out: t1/2 Experiment 2
[9] = pH 7.4, Table 8b, average of Experiments 1 and 2, read-out: t1/2 Ave

With [2H]C1([2H])c2cc(F)ccc2[C@H](C(C)C)[C@](CCN(C)CCCc2nc3ccccc3[nH]2)(OC(=O)COC)C1([2H])[2H] [Compound 500, (1S,2S)-2-(2-((3-(1H-Benzo[d]imidazol-2-yl)propyl)(methyl)amino)ethyl)-3,3,4,4-tetradeutero-6-fluoro-1-isopropyl-1,2,3,4-tetrahydronaphthalen-2-yl 2-methoxyacetate] the “half life (t1/2) shorter than that of mibefradil” value ([1]; HLM, from Table 8a) was “approximately 44%”, the half-life [1, 4] was 4.61 min and the half-life [1, 5] was 4.98 min. For the same compound, the half-life [1, 6] was 4.79 min.

[2H]C([2H])([2H])N(CC[C@]1(OC(=O)COC)[C@@H](C(C)C)c2ccc(F)cc2C([2H])([2H])C1([2H])[2H])C([2H])([2H])C([2H])([2H])C([2H])([2H])c1nc2ccccc2[nH]1 [Compound 703a, (1S,2S)-2-(2-((3-(1H-Benzo[d]imidazol-2-yl)-1,1,2,2,3,3-hexadeuteropropyl)(trideuteromethyl)-amino)ethyl)-3,3,4,4-tetradeutero-6-fluoro-1-isopropyl-1,2,3,4-tetrahydronaphthalen-2-yl 2-methoxyacetate] gave a half-life [1, 4] of 7.17 min, a half-life [1, 5] of 7.72 min and a half-life [1, 6] of 7.45 min.

For [2H]C1([2H])c2cc(F)ccc2[C@H](C(C)C)[C@](CCN(C)CCCc2nc3ccccc3[nH]2)(OC(=O)C2CC2)C1([2H])[2H] [Compound 704a, (1S,2S)-2-(2-((3-(1H-Benzo[d]imidazol-2-yl)propyl)(methyl)amino)ethyl)-3,3,4,4-tetradeutero-6-fluoro-1-isopropyl-1,2,3,4-tetrahydronaphthalen-2-yl cyclopropanecarboxylate], the half-life [1, 7] was 6.16 min, the half-life [1, 8] was 6.6 min and the half-life [1, 9] was 6.38 min.

With [2H]C([2H])([2H])N(CC[C@]1(OC(=O)C2CC2)[C@@H](C(C)C)c2ccc(F)cc2C([2H])([2H])C1([2H])[2H])C([2H])([2H])C([2H])([2H])C([2H])([2H])c1nc2ccccc2[nH]1 [Compound 707a, (1S,2S)-2-(2-((3-(1H-Benzo[d]imidazol-2-yl)-1,1,2,2,3,3-hexadeuteropropyl)(trideuteromethyl)-amino)ethyl)-3,3,4,4-tetradeutero-6-fluoro-1-isopropyl-1,2,3,4-tetrahydronaphthalen-2-yl cyclopropanecarboxylate] the half-life [1, 7] was 7.27 min, the half-life [1, 8] was 7.03 min and the half-life [1, 9] was 7.15 min.

Work on COCC(=O)O[C@]1(CCN(C)CCCc2nc3ccccc3[nH]2)CCc2cc(F)ccc2[C@@H]1C(C)C [Mibefradil, (1S,2S)-2-(2-((3-(2-benzimidazolylpropyl)methylamino)ethyl)-6-fluoro-1,2,3,4-tetrahydro-1-isopropyl-2-naphthyl methoxyacetatedihydrochloride, reference compound] yielded a half-life [1, 4] of 8.49 min, a half-life [1, 5] of 8.55 min and a half-life [1, 6] of 8.52 min. For the same compound, the bilirubin ([2]; in all cases) was “dose-dependent increase” and the plasma haptoglobin ([2]; in two cases) was “severe decrease”.

In the case of CC(C)[C@H]1c2ccc(F)cc2CC[C@@]1(CCN(C)CCCc1nc2ccccc2[nH]1)OC(=O)C1CC1 [NNC 55-0396, reference compound], the half-life [1, 7] is reported as 6.58 min, the half-life [1, 8] is reported as 6.55 min and the half-life [1, 9] is reported as 6.56 min.

In the case of CC(C)C1c2ccc(F)cc2CCC1(O)CCN(C)CCCc1nc2ccccc2[nH]1 (stereo not shown) [Ro 40-5966], the “pharmacologic effect of the metabolite as share of that of the parent” value [3] is listed as “approximately 10%”.
